Measurements as given in patent publication US12193443B2, “Use of benzoxepin derivatives as a herbicide” (ECOLE POLYTECHNIQUE, priority 2019, dated 2025).

Tested on: Arabidopsis thaliana seedlings
Experiment: Test of the herbicidal activity on Arabidopsis thaliana seedlings grown hydroponically at the cotyledon stage
Assay type: in vivo
Set-up: key: A for Active in the case where the plant is killed, that is to say when the two cotyledons have lost all of their green coloration; “N” for Not active, in the case where no biological activity is observed
Conditions: for Activity after 24 h: 24 h after application; for Activity after 96 h: 96 h after application
Method: The compounds were tested on Arabidopsis thaliana seedlings grown hydroponically at the cotyledon stage. Sterile seeds are germinated in the light in a culture plate, in the presence of 200 μL of nutrient medium. After five days of culture (time 0 of the trial), the nutrient medium is replaced with an equivalent volume (200 μL) of this same medium containing the compound to be tested at different concentrations. The manifestation of herbicidal activity is indicated by A for Active in the case where the plant is killed, that is to say when the two cotyledons have lost all of their green coloration, 24 h and 96 h after application of the product. The absence of herbicidal activity is indicated by “N” for Not active, in the case where no biological activity is observed.

| SMILES | Activity after 24 h (10 μg/mL in nutrient medium) | Activity after 96 h (10 μg/mL in nutrient medium) | Activity after 24 h (50 μg/mL in nutrient medium) | Activity after 96 h (50 μg/mL in nutrient medium) | Activity after 24 h (100 μg/mL in nutrient medium) | Activity after 96 h (100 μg/mL in nutrient medium) |
| --- | --- | --- | --- | --- | --- | --- |
| CC1=CCc2c(O)cc(CCc3ccccc3)cc2OC1 [Compound A] | N | N | A | A | A | A |
| CC1=CCOc2cc(CCc3ccccc3)c(C(=O)O)c(O)c2C1 [Compound C] | A | A | A | A | A | A |
| COC(=O)c1c(CCc2ccccc2)cc2c(c1O)CC=C(C)CO2 [Compound D] | N | N | N | A | N | A |
| Oc1cccc2c1CC=CCO2 [Compound E, reference compound] | N | N | N | N | N | N |
| CC1=CCc2c(cc(CCc3ccccc3)c(C(=O)O)c2O)OC1 [Compound H] | A | A | A | A | A | A |
